Numbers after ± are expanded uncertainties.

The conditions of data set [1]: 101.33 kPa, Liquid; for viscosity: Capillary tube (Ostwald / Ubbelohde) method; for mass density: Vibrating tube method.
The nature of data set [2]: refractive index (Na D-line) (dimensionless). Particulars: 101.33 kPa, Liquid, Standard Abbe refractometry.

In general, viscosity refers to the resistance of a fluid to flow. Broadly, the mass density is the mass of a sample divided by its volume. By refractive index is commonly meant a measure of how strongly the sample bends light. Regarding `CC(=O)c1ccccc1` [acetophenone], the viscosity in data set [1] (303.15 K) is recorded as 1.518 ± 0.02 mPa·s; in data set [1] (308.15 K), 1.378 ± 0.018 mPa·s; in data set [1] (313.15 K), 1.291 ± 0.016 mPa·s. For the same compound, the mass density was determined as 1019.9 ± 0.3 kg/m3 in data set [1] (303.15 K), 1016.9 ± 0.3 kg/m3 in data set [1] (308.15 K) and 1013.5 ± 0.3 kg/m3 in data set [1] (313.15 K). The refractive index was found to be 1.5294 ± 0.0004 in data set [2] (303.15 K), 1.527 ± 0.0004 in data set [2] (308.15 K) and 1.525 ± 0.0004 in data set [2] (313.15 K).

As to `O=C1CCCC1` [cyclopentanone], the viscosity is 0.999 ± 0.013 mPa·s in data set [1] (303.15 K), 0.927 ± 0.012 mPa·s in data set [1] (308.15 K) and 0.865 ± 0.011 mPa·s in data set [1] (313.15 K). Besides, the mass density in data set [1] (303.15 K) stood at 938.5 ± 0.4 kg/m3; in data set [1] (308.15 K), 933.9 ± 0.4 kg/m3; in data set [1] (313.15 K) it was 929 ± 0.4 kg/m3. Besides, the refractive index in data set [2] (298.15 K) was found to be 1.4352 ± 0.0004; in data set [2] (303.15 K) it was 1.4335 ± 0.0004; in data set [2] (308.15 K), 1.431 ± 0.0004; in data set [2] (313.15 K), 1.429 ± 0.0004.

With `CCC(=O)CC` [pentan-3-one], the results for the viscosity in data set [1] (303.15 K), in data set [1] (308.15 K) and in data set [1] (313.15 K) were 0.429 ± 0.006 mPa·s, 0.397 ± 0.005 mPa·s and 0.388 ± 0.005 mPa·s, respectively. Besides, the results for the mass density in data set [1] (303.15 K), in data set [1] (308.15 K) and in data set [1] (313.15 K) were 805.7 ± 0.3 kg/m3, 801.7 ± 0.3 kg/m3 and 797.7 ± 0.4 kg/m3, respectively. The refractive index in data set [2] (303.15 K) stood at 1.3879 ± 0.0004; in data set [2] (308.15 K), 1.3857 ± 0.0004; in data set [2] (313.15 K) it was 1.3835 ± 0.0004.

With `CCOC(=O)C(=O)OCC` [diethyl ethanedioate], the viscosity came to 1.623 ± 0.021 mPa·s in data set [1] (303.15 K), 1.48 ± 0.019 mPa·s in data set [1] (308.15 K) and 1.367 ± 0.018 mPa·s in data set [1] (313.15 K). For the same compound, the mass density in data set [1] (303.15 K) is 1066.1 ± 0.4 kg/m3; in data set [1] (308.15 K) it was 1060.5 ± 0.4 kg/m3; in data set [1] (313.15 K) it was 1054.5 ± 0.4 kg/m3. In addition, the results for the refractive index in data set [2] (303.15 K), in data set [2] (308.15 K) and in data set [2] (313.15 K) were 1.4063 ± 0.0004, 1.404 ± 0.0004 and 1.402 ± 0.0004, respectively.

For `O=C1CCCCC1` [cyclohexanone], the viscosity was found to be 1.816 ± 0.023 mPa·s in data set [1] (303.15 K), 1.657 ± 0.021 mPa·s in data set [1] (308.15 K) and 1.542 ± 0.02 mPa·s in data set [1] (313.15 K). For the same compound, the mass density is on record as 937.7 ± 0.4 kg/m3 in data set [1] (303.15 K), 932.8 ± 0.4 kg/m3 in data set [1] (308.15 K) and 928.2 ± 0.4 kg/m3 in data set [1] (313.15 K). The refractive index in data set [2] (303.15 K) stood at 1.4465 ± 0.0004; in data set [2] (308.15 K), 1.444 ± 0.0004; in data set [2] (313.15 K), 1.442 ± 0.0004.
